Data published in PubChem BioAssay (NCI).
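Test compounds were applied to cells in 96-well plates for 48 hours at 5 doses. TGI: concentration producing complete growth inhibition.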

Legend:
Assay in all cases: DTP human tumour cell line panel, 48 h
786-0 renal = tested on: 786-0 renal
ACHN renal = tested on: ACHN renal
K-562 leukemia = tested on: K-562 leukemia
NCI-H460 lung = tested on: NCI-H460 lung
SNB-75 CNS = tested on: SNB-75 CNS
LXFL 529 NSCLC = tested on: LXFL 529 NSCLC
SK-MEL-2 melanoma = tested on: SK-MEL-2 melanoma
CCRF-CEM leukemia = tested on: CCRF-CEM leukemia
OVCAR-8 ovarian = tested on: OVCAR-8 ovarian
SK-MEL-28 melanoma = tested on: SK-MEL-28 melanoma
HOP-18 NSCLC = tested on: HOP-18 NSCLC
SF-295 CNS = tested on: SF-295 CNS
EKVX NSCLC = tested on: EKVX NSCLC
NCI-H23 lung = tested on: NCI-H23 lung
KM20L2 colon = tested on: KM20L2 colon
U251 CNS = tested on: U251 CNS
NCI-H522 lung = tested on: NCI-H522 lung
UACC-257 melanoma = tested on: UACC-257 melanoma
OVCAR-3 ovarian = tested on: OVCAR-3 ovarian
HCT-116 colon = tested on: HCT-116 colon
OVCAR-5 ovarian = tested on: OVCAR-5 ovarian
KM12 colon = tested on: KM12 colon
TK-10 renal = tested on: TK-10 renal
RXF 393 renal = tested on: RXF 393 renal
SF-539 CNS = tested on: SF-539 CNS
MALME-3M melanoma = tested on: MALME-3M melanoma
RPMI-8226 leukemia = tested on: RPMI-8226 leukemia
SNB-19 CNS = tested on: SNB-19 CNS
M14 melanoma = tested on: M14 melanoma
SK-OV-3 ovarian = tested on: SK-OV-3 ovarian
SW-620 colon = tested on: SW-620 colon
LOX IMVI melanoma = tested on: LOX IMVI melanoma
IGROV1 ovarian = tested on: IGROV1 ovarian
DMS 273 small cell lung = tested on: DMS 273 small cell lung
HL-60(TB) leukemia = tested on: HL-60(TB) leukemia
NCI-H226 lung = tested on: NCI-H226 lung
A498 renal = tested on: A498 renal
SR leukemia = tested on: SR leukemia
COLO 205 colon = tested on: COLO 205 colon
DLD-1 colon = tested on: DLD-1 colon
SK-MEL-5 melanoma = tested on: SK-MEL-5 melanoma
UACC-62 melanoma = tested on: UACC-62 melanoma
DMS 114 small cell lung = tested on: DMS 114 small cell lung
MOLT-4 leukemia = tested on: MOLT-4 leukemia
HT29 colon = tested on: HT29 colon
HCC-2998 colon = tested on: HCC-2998 colon
SN12C renal = tested on: SN12C renal
OVCAR-4 ovarian = tested on: OVCAR-4 ovarian
M19-MEL melanoma = tested on: M19-MEL melanoma
HCT-15 colon = tested on: HCT-15 colon
A549 NSCLC = tested on: A549 NSCLC
HOP-62 NSCLC = tested on: HOP-62 NSCLC
UO-31 renal = tested on: UO-31 renal
CAKI-1 renal = tested on: CAKI-1 renal
SF-268 CNS = tested on: SF-268 CNS
XF 498 CNS = tested on: XF 498 CNS
HOP-92 NSCLC = tested on: HOP-92 NSCLC
MCF7 breast = tested on: MCF7 breast
PC-3 prostate = tested on: PC-3 prostate
BT-549 breast = tested on: BT-549 breast
T-47D breast = tested on: T-47D breast
DU-145 prostate = tested on: DU-145 prostate
MDA-N = tested on: MDA-N
MDA-MB-435 = tested on: MDA-MB-435
NCI/ADR-RES ovarian = tested on: NCI/ADR-RES ovarian
MDA-MB-231 breast = tested on: MDA-MB-231 breast
HS 578T breast = tested on: HS 578T breast

Measured: TGI

C[C@H]1CC[P+](Cc2ccccc2)(c2ccccc2)C1 (some centres undefined)
89.9 µM: SK-MEL-5 melanoma
80.2 µM: UACC-257 melanoma
not listed: CAKI-1 renal | SF-268 CNS | XF 498 CNS | HOP-92 NSCLC | MCF7 breast | PC-3 prostate | BT-549 breast | T-47D breast | DU-145 prostate | MDA-N | MDA-MB-435 | NCI/ADR-RES ovarian | MDA-MB-231 breast | HS 578T breast
> 100 µM: all other assays above

COCC(C)(C)N=CN1Cc2cc3ccccc3nc2C1
not listed: LXFL 529 NSCLC | OVCAR-5 ovarian | LOX IMVI melanoma | DMS 273 small cell lung | A498 renal | HCC-2998 colon | MCF7 breast | PC-3 prostate | BT-549 breast | T-47D breast | DU-145 prostate | MDA-N | MDA-MB-435 | NCI/ADR-RES ovarian | MDA-MB-231 breast | HS 578T breast
> 100 µM: all other assays above

O=C(NCCN1CCCCC1)c1ccc(Br)cc1
not listed: LXFL 529 NSCLC | CCRF-CEM leukemia | HOP-18 NSCLC | KM20L2 colon | SF-539 CNS | DMS 273 small cell lung | NCI-H226 lung | DLD-1 colon | UACC-62 melanoma | DMS 114 small cell lung | M19-MEL melanoma | XF 498 CNS
> 100 µM: all other assays above
